Measured values taken from paper PMC7457178 (Biomolecules & Therapeutics, 2020).

Columns and labels:
[1] = test system: HDAC5 phosphorylation; assay: Angiotensin II-induced HDAC5 phosphorylation in neonatal cardiomyocytes; details: 0.1 µM angiotensin II
[2] = Cytotoxicity, NIH3T3; type: cell-based; details: mouse, NIH3T3 cells
[3] = Cytotoxicity, HFL-1; type: cell-based; details: human, HFL-1 cells
[4] = Cytotoxicity, VERO; type: cell-based; details: African green monkey, VERO cells
[5] = in vivo; details: Sprague-Dawley (S.D.), rat, iv, 10 mg/kg, Kp (ratio of tissue to plasma concentration), 10 mg/kg i.v.
[6] = test system: S.D. rats; assay: Post-MI chronic heart failure model; type: in vivo, rat; details: for Fractional shortening / Left ventricular ejection fraction: 12 weeks after coronary artery ligation
[7] = test system: neonatal rat cardiomyocytes; assay: Angiotensin II-induced cellular hypertrophy in neonatal cardiomyocytes; details: 0.1 µM angiotensin II, 4 days
[8] = Pharmacokinetic study in rats; type: in vivo; details: rat
[9] = target: T1, GRK2 (Homo sapiens, UniProt P25098); assay: Inhibitory activity against GRK2; type: biochemical; details: read-out: Inhibition of GRK2
T1 sequence (P25098 1-689): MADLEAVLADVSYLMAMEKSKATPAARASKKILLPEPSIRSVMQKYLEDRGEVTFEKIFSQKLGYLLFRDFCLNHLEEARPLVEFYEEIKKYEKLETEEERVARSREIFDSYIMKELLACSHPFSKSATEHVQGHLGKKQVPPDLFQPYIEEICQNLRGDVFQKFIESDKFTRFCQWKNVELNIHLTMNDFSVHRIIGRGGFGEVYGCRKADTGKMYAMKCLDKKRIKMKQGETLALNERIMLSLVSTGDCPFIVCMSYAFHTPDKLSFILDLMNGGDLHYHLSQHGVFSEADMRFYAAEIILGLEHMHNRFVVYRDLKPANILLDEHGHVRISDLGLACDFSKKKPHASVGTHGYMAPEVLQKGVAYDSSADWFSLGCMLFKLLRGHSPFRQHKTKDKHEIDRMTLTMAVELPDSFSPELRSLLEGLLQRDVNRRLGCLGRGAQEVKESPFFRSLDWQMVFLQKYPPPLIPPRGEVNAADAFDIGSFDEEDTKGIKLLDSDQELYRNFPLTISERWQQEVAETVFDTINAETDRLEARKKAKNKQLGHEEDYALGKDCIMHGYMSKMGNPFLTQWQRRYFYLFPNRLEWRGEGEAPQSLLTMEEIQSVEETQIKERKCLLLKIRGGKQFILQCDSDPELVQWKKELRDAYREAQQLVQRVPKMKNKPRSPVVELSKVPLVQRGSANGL

[10] = target: hERG channel (Homo sapiens, UniProt Q12809); assay: Patch clamp for the hERG channel; type: cell-based
Sequence of hERG channel (Q12809 whole entry): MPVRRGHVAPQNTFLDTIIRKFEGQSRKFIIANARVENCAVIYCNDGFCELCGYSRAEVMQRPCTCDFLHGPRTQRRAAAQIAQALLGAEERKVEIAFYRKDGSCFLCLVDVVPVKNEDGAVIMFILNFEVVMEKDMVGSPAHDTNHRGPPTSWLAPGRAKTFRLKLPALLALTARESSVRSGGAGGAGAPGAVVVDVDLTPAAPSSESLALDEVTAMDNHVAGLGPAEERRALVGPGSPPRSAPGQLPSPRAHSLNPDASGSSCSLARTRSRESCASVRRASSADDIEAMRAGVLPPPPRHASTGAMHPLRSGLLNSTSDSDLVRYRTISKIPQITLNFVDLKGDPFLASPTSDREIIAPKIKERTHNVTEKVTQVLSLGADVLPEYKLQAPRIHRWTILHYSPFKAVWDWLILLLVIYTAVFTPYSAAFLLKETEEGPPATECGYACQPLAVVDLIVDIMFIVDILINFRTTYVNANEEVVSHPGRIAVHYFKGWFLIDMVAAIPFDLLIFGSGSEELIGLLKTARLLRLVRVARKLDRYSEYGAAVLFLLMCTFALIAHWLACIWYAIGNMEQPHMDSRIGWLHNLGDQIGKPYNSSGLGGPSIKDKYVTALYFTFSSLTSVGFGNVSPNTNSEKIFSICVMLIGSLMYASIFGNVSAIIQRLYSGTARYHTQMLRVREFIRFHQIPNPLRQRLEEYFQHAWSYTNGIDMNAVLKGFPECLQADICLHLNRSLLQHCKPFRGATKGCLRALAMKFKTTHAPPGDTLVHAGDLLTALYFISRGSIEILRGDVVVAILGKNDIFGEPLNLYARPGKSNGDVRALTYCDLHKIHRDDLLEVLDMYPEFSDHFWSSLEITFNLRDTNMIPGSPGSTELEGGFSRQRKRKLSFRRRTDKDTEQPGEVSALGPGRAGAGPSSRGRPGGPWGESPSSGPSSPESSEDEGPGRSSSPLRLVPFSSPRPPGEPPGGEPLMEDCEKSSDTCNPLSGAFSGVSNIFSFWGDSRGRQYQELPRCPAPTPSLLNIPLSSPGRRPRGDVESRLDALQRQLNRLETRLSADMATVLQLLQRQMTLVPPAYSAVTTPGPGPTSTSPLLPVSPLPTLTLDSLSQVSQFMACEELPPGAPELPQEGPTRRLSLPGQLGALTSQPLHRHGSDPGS

[11] = Cytotoxicity, L929; type: cell-based; details: mouse, L929 cells
[12] = test system: C57BL/6 mice; assay: Transverse aortic constriction; details: 30 mg/kg daily oral, 14 days
[13] = 30 mg/kg/day p.o., 12 weeks after MI
[14] = Sprague-Dawley (S.D.), plasma, iv, 5 mg/kg
[15] = Sprague-Dawley (S.D.), plasma, po, 300 mg/kg

SMILES: NCCCNCCCCNCCCNc1cc2nc(-c3ccccc3Cl)[nH]c(=O)c2cc1F [KR-39038, 7-((3-((4-((3-aminopropyl)amino)butyl)amino)propyl)amino)-2-(2-chlorophenyl)-6-fluoroquinazolin-4(3H)-one]
- Effect on angiotensin II-induced phosphorylation of HDAC5 [1]: effectively downregulated
- EC50 [2]: 61.1 µM
- EC50 [3]: > 100 µM
- EC50 [4]: > 100 µM
- Kp at 4 h ([5]; brain): 11.3
- Kp at 4 h ([5]; heart): 16.9
- Kp at 4 h ([5]; kidney): 26.3
- Kp at 4 h ([5]; liver): 10.4
- Kp at 4 h ([5]; lung): 2.7
- Kp at 4 h ([5]; plasma): 1
- Survival rate ([6]; 10 mg/kg/day p.o., 12 weeks after MI): 80%
- Fractional shortening ([6]; 10 mg/kg/day p.o.): 23.4 ± 1.6%
- Left ventricular ejection fraction ([6]; 10 mg/kg/day p.o.): 44.3 ± 2.6%
- Interstitial fibrosis [6, 13]: 16.3 ± 1.6%
- Myocyte cross-sectional area [6, 13]: 420.1 ± 21.2 µm^2
- Survival rate [6, 13]: 73%
- Fractional shortening ([6]; 30 mg/kg/day p.o.): 22.6 ± 1.3%
- Left ventricular ejection fraction ([6]; 30 mg/kg/day p.o.): 43.4 ± 2.3%
- Effect on angiotensin II-induced cellular hypertrophy (cell surface area) [7]: concentration-dependently inhibited
- AUC(0-inf) [8, 14]: 3400 ± 1000 ng·h/mL
- Vd [8, 14]: 1.2 ± 0.2 L/kg
- clearance [8, 14]: 26.7 mL/min/kg
- half-life [8, 14]: 42 ± 2.4 min
- AUC(0-inf) ([8]; Sprague-Dawley (S.D.), plasma, iv, 10 mg/kg): 3400 ± 1000 ng·h/mL
- AUC(0-inf) [8, 15]: 8900 ± 5000 ng·h/mL
- Cmax [8, 15]: 5200 ± 2800 ng/mL
- Tmax [8, 15]: 42 ± 12 min
- half-life [8, 15]: 138 ± 174 min
- F (oral bioavailability) ([8]; 300 mg/kg p.o., 300 mg/kg): 4.3 ± 2.4%
- inhibition at 10 µM [9]: 5.9%
- IC50 [10]: > 50 µM
- EC50 [11]: 89.9 µM
- Reduction in the left ventricular weight [12]: 43%

SMILES: CC(C)c1ccc2oc3nc(N)c(C(=O)O)cc3c(=O)c2c1 [amlexanox, reference compound]
- Effect on angiotensin II-induced phosphorylation of HDAC5 [1]: effectively downregulated
- Effect on angiotensin II-induced cellular hypertrophy (cell surface area) [7]: concentration-dependently inhibited

SMILES: C[C@H](CS)C(=O)N1CCC[C@H]1C(=O)O [captopril, reference compound]
- Survival rate [6, 13]: 67%
